Key:
Format in all cases: cell-based
[1] = biological target: T1, Nociceptin receptor (Homo sapiens, UniProt P41146); assay: Ability to inhibit calcium flux in HEK293 cells overexpresses human opiate receptor-like 1 in the presence of 100 nM nociceptin
[2] = biological target: T1, Nociceptin receptor; assay: Binding affinity determined by the ability to compete with [125I]-Tyr14- nociceptin from binding to human opiate receptor-like 1 expressed in HEK293 cells
[3] = biological target: Delta-type opioid receptor (Homo sapiens, UniProt P41143); assay: Binding affinity against human opioid receptor delta 1 expressed in HEK293 cells using [3H]DDPDE radioligand
Sequence of Delta-type opioid receptor (P41143 whole entry): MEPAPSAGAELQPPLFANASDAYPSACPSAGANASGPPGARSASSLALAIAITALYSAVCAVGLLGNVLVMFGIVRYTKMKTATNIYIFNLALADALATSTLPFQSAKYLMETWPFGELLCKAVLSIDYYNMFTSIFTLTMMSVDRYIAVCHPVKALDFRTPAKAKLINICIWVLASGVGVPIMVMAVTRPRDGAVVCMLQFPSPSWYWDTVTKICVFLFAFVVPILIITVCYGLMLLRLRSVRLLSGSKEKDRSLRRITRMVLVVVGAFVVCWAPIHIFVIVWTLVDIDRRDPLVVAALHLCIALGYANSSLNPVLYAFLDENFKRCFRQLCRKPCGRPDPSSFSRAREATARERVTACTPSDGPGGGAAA

[4] = biological target: Mu-type opioid receptor (Homo sapiens, UniProt P35372); assay: Binding affinity against human opioid receptor mu 1 expressed in HEK293 cells using [3H]DAMGO radioligand
Sequence of Mu-type opioid receptor (P35372 whole entry): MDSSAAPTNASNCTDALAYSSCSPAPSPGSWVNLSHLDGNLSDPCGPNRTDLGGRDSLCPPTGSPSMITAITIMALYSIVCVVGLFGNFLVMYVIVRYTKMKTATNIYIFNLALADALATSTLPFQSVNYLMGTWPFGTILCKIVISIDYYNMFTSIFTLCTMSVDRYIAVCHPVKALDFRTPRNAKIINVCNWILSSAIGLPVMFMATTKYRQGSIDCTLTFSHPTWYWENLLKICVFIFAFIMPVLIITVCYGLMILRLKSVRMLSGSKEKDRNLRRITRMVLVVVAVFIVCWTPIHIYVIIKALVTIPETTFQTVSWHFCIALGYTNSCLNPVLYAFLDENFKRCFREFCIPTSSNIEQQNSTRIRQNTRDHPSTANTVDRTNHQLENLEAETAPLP

[5] = biological target: Kappa-type opioid receptor (Homo sapiens, UniProt P41145); assay: Binding affinity against human opioid receptor kappa 1 expressed in HEK293 cells using 3H-U69,593 radioligand
Sequence of Kappa-type opioid receptor (P41145 whole entry): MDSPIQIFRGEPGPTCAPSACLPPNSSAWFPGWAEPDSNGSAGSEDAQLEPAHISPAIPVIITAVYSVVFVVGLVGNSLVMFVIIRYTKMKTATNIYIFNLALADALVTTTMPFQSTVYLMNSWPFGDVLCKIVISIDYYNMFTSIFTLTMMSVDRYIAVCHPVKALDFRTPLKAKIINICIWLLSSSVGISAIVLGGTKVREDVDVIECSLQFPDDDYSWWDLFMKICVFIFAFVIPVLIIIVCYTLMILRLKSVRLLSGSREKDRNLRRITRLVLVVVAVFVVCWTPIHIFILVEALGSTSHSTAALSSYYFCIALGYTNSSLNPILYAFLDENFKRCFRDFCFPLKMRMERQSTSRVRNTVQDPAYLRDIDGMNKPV

T1 sequence (P41146 whole entry): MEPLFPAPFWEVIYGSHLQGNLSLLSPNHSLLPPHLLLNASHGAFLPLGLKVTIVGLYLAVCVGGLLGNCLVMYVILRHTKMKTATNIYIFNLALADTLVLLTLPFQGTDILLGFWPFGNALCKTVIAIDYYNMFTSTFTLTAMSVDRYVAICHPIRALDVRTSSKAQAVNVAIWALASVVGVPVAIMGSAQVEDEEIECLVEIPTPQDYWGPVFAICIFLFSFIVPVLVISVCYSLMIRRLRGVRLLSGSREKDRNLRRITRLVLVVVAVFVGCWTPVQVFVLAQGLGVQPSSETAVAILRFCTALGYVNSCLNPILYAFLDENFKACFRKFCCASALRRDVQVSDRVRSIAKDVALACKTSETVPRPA

Row | Structure (SMILES) | IC50 [2] [µM] | IC50 [3] [µM] | further results
1 | CN1C(=O)C2(CCN(CC3CCCCCCC3)CC2)c2cc(F)ccc21 | – | – | inhibition [1]: 66%
2 | COC(=O)CN1C(=O)C2(CCN(Cc3ccc(-c4ccccc4)cc3)CC2)c2ccccc21 | 10 | – | –
3 | CCN(Cc1ccc(C)cc1)CC(O)CN1C(=O)C2(CCN(CC3CCCCCCC3)CC2)c2ccccc21 (centres undefined) | – | > 10 | –
4 | Cc1ccc2c(c1)C1(CCN(CC3CCCCCCC3)CC1)C(=O)N2C | – | 9.4 | –
5 | Cc1cccc2c1C1(CCN(CC3CCCCCCC3)CC1)C(=O)N2C | – | > 10 | inhibition [1]: 81%
6 | O=C1Nc2ccccc2C12CCN(CC1CCCCCCC1)CC2 | – | > 10 | inhibition [1]: 45%
7 | CN1C(=O)C2(CCN(CC3CCCCCCC3)CC2)c2ccccc21 | – | > 10 | –
8 | Cc1ccc2c(c1)N(C)C(=O)C21CCN(CC2CCCCCCC2)CC1 | – | – | inhibition [1]: 48%
9 | CC(C)c1ccc2c(c1)C1(CCN(CC3CCCCCCC3)CC1)C(=O)N2C | – | > 10 | –
10 | COC(=O)CN1C(=O)C2(CCN(Cc3ccccc3-c3ccsc3)CC2)c2ccccc21 | 10 | – | –
11 | COc1ccc2c(c1)N(C)C(=O)C21CCN(CC2CCCCCCC2)CC1 | – | > 10 | –
12 | CCN1C(=O)C2(CCN(CC3CCCCCCC3)CC2)c2ccc(OC)cc21 | – | > 10 | –
13 | COC(=O)CN1C(=O)C2(CCN(c3ccc4c5c(cccc35)CC4)CC2)c2ccccc21 | 0.35 | – | –
14 | CC(=O)OCCN1C(=O)C2(CCN(CC3CCCCCCC3)CC2)c2ccccc21 | – | > 10 | –
15 | O=C(O)CN1C(=O)C2(CCN(CC3CCCCCCC3)CC2)c2ccccc21 | – | – | IC50 ([2]; hek293): < 10 µM
16 | COC(=O)CN1C(=O)C2(CCN(C(=O)C3CCC(OC)CC3)CC2)c2ccccc21 (centres undefined) | > 10 | – | –
17 | COc1ccc2c(c1)N(CC1CC1)C(=O)C21CCN(CC2CCCCCCC2)CC1 | > 10 | > 10 | IC50 [4]: 10 µM; IC50 [5]: > 10 µM
18 | O=C1N(CC(O)CNCCN2CCOCC2)c2ccccc2C12CCN(CC1CCCCCCC1)CC2 (centres undefined) | – | > 10 | –
19 | O=C1N(CC2CO2)c2ccccc2C12CCN(CC1CCCCCCC1)CC2 (centres undefined) | – | > 10 | –
20 | COC(=O)CN1C(=O)C2(CCN(C(=O)CCC(=O)c3ccccc3)CC2)c2ccccc21 | > 10 | – | –
21 | COC(=O)CN1C(=O)C2(CCN(C(C)c3ccccc3)CC2)c2ccccc21 (centres undefined) | 10 | – | –
22 | CCCCCCC(CCCC)CN1CCC2(CC1)C(=O)N(CC(=O)OC)c1ccccc12 (centres undefined) | 10 | – | –
23 | O=C1N(Cc2ccccc2)c2ccccc2C12CCN(CC1CCCCCCC1)CC2 | – | > 10 | –
24 | COC(=O)CN1C(=O)C2(CCN(CC3CCCCCCC3)CC2)c2ccccc21 | – | > 10 | –

Source: ChEMBL document CHEMBL1143642, “Preparation of 3-spirocyclic indolin-2-ones as ligands for the ORL-1 receptor” (Bioorg Med Chem Lett, 2005)
